Measurements published in paper PMC5464773 (eLife, 2017).
Like-named read-outs stand apart in the source and are kept apart here.

How the values were obtained:
PC-3 cells = assay: iBH3, cytochrome c release in unprimed cells (BAK/BAX activator function); type: cell-based; conditions: for peptide concentration leading to cytochrome c release in unprimed cells: PC-3, unprimed, iBH3, 25°C, 1 hr; for LogEC50 (best-fit value) / HillSlope (best-fit value) / Bottom (best-fit value) / Top (best-fit value): iBH3 fit PC-3, sigmoidal dose-response (variable slope); for LogEC50 (best-fit value): log of EC50, x axis Log [Peptide M]; for Bottom (best-fit value) / Top (best-fit value): fit of 4 replicates
Procedure: (§1) To test the possibility that FS1, FS2 or FS3 may directly activate BAK and BAX, we measured cytochrome c release in two ‘unprimed’ cell lines (PC-3 and SF295). Unprimed cells require BAK/BAX activators to release cytochrome c ([Certo et al., 2006]).
(§2) Cell line identities were confirmed by STR profiling.
(§3) Plates were incubated at 25°C for 1 hr.

[1] = system: BCR-ABL-expressing B-lineage acute lymphoblastic leukemia cells dependent on Bcl-2; assay: iBH3 profiling, cytochrome c release; type: cell-based; conditions: iBH3 fits Bcl-2, sigmoidal dose-response (variable slope); for LogEC50 (best-fit value): log of EC50, x axis Log [Peptide M]; for Bottom (best-fit value) / Top (best-fit value): fit of 3 replicates
Procedure: (§4) As an additional test for on-pathway activity, we measured cytochrome c release in the same engineered cell lines in response to peptide treatment, using iBH3 profiling ([Ryan et al., 2016]).
(§5) The creation and characterization of the BCR-ABL-expressing B-lineage acute lymphoblastic leukemia suspension cell lines with engineered dependencies on human versions of anti-apoptotic genes is detailed in [Koss et al. (2016)]). Cells were grown in RPMI (Life Technologies, Carlsbad, CA) with 10% fetal bovine serum, 2 mM L-glutamine, 10 mL/L 100x Pen/Strep (Life Technologies # 15140122), 25 mM HEPES and 10 mL/L 100x NEAA (Life Technologies, 11140050). The adherent cell lines PC-3 (RRID: CVCL_0035) and SF295 (RRID: CVCL_1690) are from the NCI60 panel ([Lorenzi et al., 2009]) and were grown in RPMI (Life Technologies) with 10% fetal bovine serum, 2 mM L-glutamine and 10 mL/L 100x Pen/Strep (Life Technologies # 15140122 ). Cell line identities were confirmed by STR profiling. The Lookout Mycoplasma PCR detection kit (Sigma) was used to detect mycoplasma infection.
(§6) Cells were suspended in MEB buffer (150 mM mannitol, 50 mM KCl, 10 mM HEPES, 5 mM succinic acid, 20 μM EGTA, 20 μM EDTA, 0.1% BSA, final pH 7.4) at 0.5*10^6 cells/mL (adherent lines) or 2 *10^6 cells/mL (suspension lines). Cell suspension was added to a 384 non-binding well plate (10 μL/well) containing peptides at 2X final concentration in MEB with 20 μg/mL digitonin. Plates were incubated at 25°C for 1 hr. To terminate exposure, 10 μL of 4% formaldehyde in PBS was added to each well, plates were incubated for 10 min before addition of 10 μL N2 buffer (1.7M Tris, 1.25M glycine, pH 9.1) for 5 min. 10 μL of staining buffer (2% Tween20, 10% BSA, PBS) containing 10 μg/mL Hoechst 33342 and 1.25 μg/mL anti-cytochrome c Alexa647 conjugate (BioLegend clone 6H2.B4) was added to each well before sealing the plate and shaking overnight. The median fluorescence of the cytochrome c channel of Hoechst positive singlets was recorded by an IntelliCyt iQue Screener Plus. Cytochrome c release was determined by normalizing the median fluorescence intensity (MFI) data to positive control wells (Alamethicin) and negative control wells (DMSO) as follows: Cytochromecrelease=1−(MFIsample−MFIAlamethicin)/(MFIDMSO−MFIAlamethicin)

[2] = system: BCR-ABL-expressing B-lineage acute lymphoblastic leukemia cells dependent on Bcl-xL; assay: iBH3 profiling, cytochrome c release; type: cell-based; conditions: iBH3 fits Bcl-xL, sigmoidal dose-response (variable slope); for LogEC50 (best-fit value): log of EC50, x axis Log [Peptide M]; for Bottom (best-fit value) / Top (best-fit value): fit of 3 replicates
Procedure: as §4, §5, §6

SF295 cells = type: cell-based; conditions: for peptide concentration leading to cytochrome c release in unprimed cells: SF295, unprimed, iBH3, 25°C, 1 hr; for Bottom (best-fit value) / HillSlope (best-fit value) / Top (best-fit value) / LogEC50 (best-fit value): SF295 cells, iBH3 fit, sigmoidal dose-response (variable slope); for LogEC50 (best-fit value): log of peptide concentration in M
Procedure: as §1, §2, §3

[3] = system: BCR-ABL-expressing B-lineage acute lymphoblastic leukemia cells dependent on Mcl-1; conditions: iBH3 fits Mcl-1, sigmoidal dose-response (variable slope); for Bottom (best-fit value) / Top (best-fit value): fit of 3 replicates
Procedure: as §4, §5, §6

[4] = system: BCR-ABL-expressing B-lineage acute lymphoblastic leukemia cells dependent on Bfl-1; conditions: for Bottom (best-fit value) / Top (best-fit value): fit of 3 replicates; for cytochrome c release pattern in iBH3: low concentrations, highly primed cells of known anti-apoptotic protein dependency
Procedure: as §4, §5, §6

[5] = system: BCR-ABL-expressing B-lineage acute lymphoblastic leukemia cells dependent on Bfl-1; assay: BH3 profiling, mitochondrial depolarization (JC-1) in permeabilized cells; type: cell-based; parameters: key to Bottom (best-fit value) / Top (best-fit value): % depolarization, normalized to DMSO (0) and FCCP (100) controls; conditions: for mitochondrial depolarization pattern in BH3 profiling: 100 nM peptide, four cell lines engineered to depend on Bcl-2, Bcl-xL, Mcl-1 or Bfl-1, JC-1; for HillSlope (best-fit value) / Bottom (best-fit value) / Top (best-fit value) / LogEC50 (best-fit value): BH3 profiling fits Bfl-1, sigmoidal dose-response (variable slope); for Bottom (best-fit value): constraint Bottom < 5; for Top (best-fit value): constraint Top > 78; for LogEC50 (best-fit value): x = Log [Peptide] M, 55-56 Y values analyzed
Procedure: as §2
(§7) Peptides were titrated by serial dilution in MEB buffer (150 mM Mannitol, 10 mM HEPES-KOH pH 7.5, 50 mM KCl, 0.02 mM EGTA, 0.02 mM EDTA, 0.1% BSA and 5 mM Succinate) containing 20 μg/mL oligomycin, 50 μg/mL digitonin, 2 μM JC-1 and 10 mM 2-mercaptoethanol in 384-well plates. Controls for no depolarization (1% DMSO) and complete depolarization with the mitochondrial oxidative phosphorylation uncoupler FCCP (20 μM) were included for data normalization. […] 15 μL of cell suspension was added to each well containing 15 μL of treatment solution. […] To produce percent depolarization, the area under the resultant curve was calculated and normalized to the assay controls. Peptide titration curves were fit to sigmoidal dose-response curves using Graphpad PRISM seven to obtain EC50 values.

[6] = system: BCR-ABL-expressing B-lineage acute lymphoblastic leukemia cells dependent on Mcl-1; assay: as above; type: cell-based; conditions: BH3 profiling fits Mcl-1, sigmoidal dose-response (variable slope); for Top (best-fit value): constrained (Top < 100 or Top > 78); for LogEC50 (best-fit value): x = Log [Peptide] M, fits hit constraint or ambiguous
Procedure: as §2, §7

[7] = iBH3 fits Bfl-1, sigmoidal dose-response (variable slope)

| Substance | peptide concentration leading to cytochrome c release in unprimed cells (PC-3 cells) | LogEC50 (best-fit value) (PC-3 cells) | HillSlope (best-fit value) (PC-3 cells) | Bottom (best-fit value) (PC-3 cells) | Top (best-fit value) (PC-3 cells) | LogEC50 (best-fit value) [1] | HillSlope (best-fit value) [1] | Bottom (best-fit value) [1] | Top (best-fit value) [1] | LogEC50 (best-fit value) [2] | HillSlope (best-fit value) [2] | Bottom (best-fit value) [2] | Top (best-fit value) [2] | peptide concentration leading to cytochrome c release in unprimed cells (SF295 cells) | Bottom (best-fit value) (SF295 cells) | HillSlope (best-fit value) (SF295 cells) | Top (best-fit value) (SF295 cells) | LogEC50 (best-fit value) (SF295 cells) | HillSlope (best-fit value) [3] | Bottom (best-fit value) [3] | further results |
| --- | --- | --- | --- | --- | --- | --- | --- | --- | --- | --- | --- | --- | --- | --- | --- | --- | --- | --- | --- | --- | --- |
| Ac-QWVREIAAGLRLAADNVNAQLER-NH2 [FS1] | > 100 µM | ~ -3.754 | ~ -10.78 | ~ -63.64 | 0.1 | -3.946 | 0.814 | 0.1541 | 1.46 | ~ -4.446 | ~ 9.069 | 0.1572 | 0.461 | > 100 µM | ~ -0.1825 | ~ -14.56 | 0.01448 | ~ -4.046 | 1.721 | 0.09874 | LogEC50 (best-fit value) ([3]; log of EC50, x axis Log [Peptide M]): -4.595; Top (best-fit value) [3]: 0.9023; LogEC50 (best-fit value) ([4]; iBH3 fits Bfl-1, log of EC50, x axis Log [Peptide M], sigmoidal dose-response (variable slope)): -6.521; HillSlope (best-fit value) [4, 7]: 2.245; Bottom (best-fit value) [4, 7]: 0.8808; Top (best-fit value) [4, 7]: 0.9982; cytochrome c release pattern in iBH3 [4]: selectively induced cytochrome c release only in Bfl-1 dependent cell lines; mitochondrial depolarization pattern in BH3 profiling [5]: promoted depolarization only in Bfl-1 dependent cells; HillSlope (best-fit value) [5]: 0.8486; Bottom (best-fit value) [5]: 1.325; Top (best-fit value) [5]: 81.21; LogEC50 (best-fit value) [5]: -7.974; HillSlope (best-fit value) [6]: 0.346; Top (best-fit value) [6]: 99.39; LogEC50 (best-fit value) [6]: -4.985 |
| Ac-QWIREIAAGLRRFADILNAQVER-NH2 [FS3] | 30 to 100 µM | -4.638 | 2.225 | 0.07242 | 1.062 | -5.822 | 2.312 | 0.1754 | 0.986 | -5.617 | 1.589 | 0.1375 | 0.9805 | 30 to 100 µM | 0.0773 | 2.539 | 1.042 | -4.873 | 4.529 | 0.1359 | Top (best-fit value) [3]: 0.9781; HillSlope (best-fit value) [4, 7]: 0.832; Bottom (best-fit value) [4, 7]: ~ -46.09; Top (best-fit value) [4, 7]: 0.9862; cytochrome c release pattern in iBH3 [4]: selectively induced cytochrome c release only in Bfl-1 dependent cell lines; mitochondrial depolarization pattern in BH3 profiling [5]: promoted depolarization only in Bfl-1 dependent cells; HillSlope (best-fit value) [5]: 0.653; Bottom (best-fit value) [5]: 0.004086; Top (best-fit value) [5]: 83.65; LogEC50 (best-fit value) [5]: -8.381; specificity in BH3 profiling ([5]; four engineered cell lines, FS3 statement holds for JC-1 BH3 profiling and iBH3): significant cross reactivity at 30 μM; HillSlope (best-fit value) [6]: 0.8379; Bottom (best-fit value) ([6]; constrained (0 < Bottom < 5 or Bottom < 5)): 4.876; Top (best-fit value) [6]: ~ 100; LogEC50 (best-fit value) [6]: -5.183 |
